In article PMC12037410, “Pharmacological targeting of BMAL1 modulates circadian and immune pathways” (Nature Chemical Biology, 2025):

target: BMAL1 (Homo sapiens, UniProt O00327); parameters: PASB domain (residues 338–449); Protein thermal shift (PTS) fragment screen on recombinant human BMAL1(PASB), shift of melting temperature; details: dTmB; binder
Sequence (O00327 338-449): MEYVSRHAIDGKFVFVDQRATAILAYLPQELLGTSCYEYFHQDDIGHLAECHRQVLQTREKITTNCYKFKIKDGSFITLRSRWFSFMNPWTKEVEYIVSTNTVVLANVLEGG

Compared with `c1ccc(C(c2ccccc2)n2ccnc2)cc1` [Prestw-Frag-2868, Compound 465], `c1ccc(C(c2ccccc2)n2cncn2)cc1` [Prestw-Frag-2645, Compound 443] is higher in “Bmal1(PASB) dTmB” value: -6.29 °C for the first, -2.46 °C for the second.

First: COc1ccc(CCN(C)C)cc1OC [Prestw-Frag-1445, Compound 247]
Second: COc1ccc(CCN2CCC(N)CC2)cc1 [Prestw-Frag-1051, Compound 427]
The “Bmal1(PASB) dTmB” value of the first is higher: -0.12 °C for the first, -0.58 °C for the second.

Compared with `c1cc2c(s1)CCNC2` [Prestw-Frag-1694, Compound 112], `CN1CCNCC1=O` [Prestw-Frag-3460, Compound 125] is higher in “Bmal1(PASB) dTmB” value: -0.53 °C for the first, 0.00 °C for the second.

First: NCCCOc1cccc(CN2CCCCC2)c1 [Prestw-Frag-2808, Compound 156]
Second: OCCN1CCN(c2ccccc2)CC1 [Prestw-Frag-1945, Compound 144]
The “Bmal1(PASB) dTmB” value of the first is lower: -1.04 °C for the first, -0.42 °C for the second.

Compared with `O=C(O)c1cnccn1` [Prestw-Frag-1495, Compound 269], `O=C(O)COc1ccccc1` [Prestw-Frag-2577, Compound 147] is higher in “Bmal1(PASB) dTmB” value: 0.04 °C for the first, 0.25 °C for the second.

First: O=C(Cc1ccccc1F)C1CC1 [Prestw-Frag-3198, Compound 60]
Second: Oc1ccccc1C1CCCC1 [Prestw-Frag-2706, Compound 472]
The “Bmal1(PASB) dTmB” value of the first is higher: -1.49 °C for the first, -2.14 °C for the second.

Going from `O=c1[nH]nc(Cc2ccc(Cl)cc2)c2ccccc12` [Prestw-Frag-1559, Compound 61] to `CNC(=O)c1ccc(Cl)cc1` [Prestw-Frag-2018, Compound 319], the “Bmal1(PASB) dTmB” value falls from -0.44 °C to -0.45 °C.

Going from `CCN(CC)C(=O)CC#N` [Prestw-Frag-3731, Compound 282] to `CCN(CC)CCNc1ccccc1` [Prestw-Frag-1993, Compound 214], the “Bmal1(PASB) dTmB” value falls from -0.04 °C to -0.30 °C.

First: c1ccc(-n2ccc3ccccc32)cc1 [Prestw-Frag-3011, Compound 447]
Second: CC(O)(c1ccccc1)c1ccccn1 (stereo not shown) [Prestw-Frag-2237, Compound 355]
The “Bmal1(PASB) dTmB” value of the first is higher: -0.07 °C for the first, -0.76 °C for the second.

Going from `COc1ccc2c(c1)CCC(C(=O)O)C2` (stereo not shown) [Prestw-Frag-3739, Compound 163] to `CC(C)(Oc1ccccc1)C(=O)O` [Prestw-Frag-1053, Compound 221], the “Bmal1(PASB) dTmB” value falls from 0.52 °C to 0.07 °C.

First: O=C1CCCc2[nH]ccc21 [Prestw-Frag-2675, Compound 219]
Second: CN1C(=O)CCC1=O [Prestw-Frag-2713, Compound 293]
The “Bmal1(PASB) dTmB” value of the first is lower: 0.11 °C for the first, 0.17 °C for the second.

First: OCC1CCCNC1 (stereo not shown) [Prestw-Frag-3728, Compound 390]
Second: CCOc1ccccc1OCC1CNCCO1 (stereo not shown) [Prestw-Frag-2992, Compound 332]
The “Bmal1(PASB) dTmB” value of the first is higher: -0.26 °C for the first, -0.48 °C for the second.

First: CC(C)(C)NCC(O)COc1ccccc1C1CCCC1 (stereo not shown) [Prestw-Frag-0674, Compound 468]
Second: CC(C)(CN)c1ccccc1 [Prestw-Frag-3733, Compound 285]
The “Bmal1(PASB) dTmB” value of the first is lower: -1.95 °C for the first, -0.30 °C for the second.

First: O=C(O)Cc1cccs1 [Prestw-Frag-2140, Compound 161]
Second: CC(Oc1ccccc1)C(N)=O (stereo not shown) [Prestw-Frag-1200, Compound 240]
The “Bmal1(PASB) dTmB” value of the first is higher: -0.19 °C for the first, -0.43 °C for the second.

Compared with `Nc1c(Cl)ccc2nsnc12` [Prestw-Frag-1492, Compound 2], `Cc1cccc(O)c1` [Prestw-Frag-1791, Compound 216] is higher in “Bmal1(PASB) dTmB” value: -1.34 °C for the first, -0.80 °C for the second.

`CCCC(=O)Nc1cccc(C(C)=O)c1` [Prestw-Frag-1717, Compound 428] was tested, and the “Bmal1(PASB) dTmB” value was -0.30 °C.
